These results are taken from patent US20050192228A1, “Tripeptide derivatives for the treatment of neurodegenerative diseases” (priority 2001, published 2005).

Format in all cases: in vivo, Male Wistar rats
In experiment [1] the test system is glucocorticoid receptors of the hippocampus. Kind of experiment: Dexamethasone model: determination of the corticoide receptors in the hippocampus (3H-dexamethasone binding). Conditions: for Type I receptors in Femtomol/mg protein: dexamethasone 50 mg/kg/day, hippocampi removed after the last learning session; for effect on number of receptors of hippocampus neurons (in words): dexamethasone model. As to the method:
(§1) 40 rats were kept and operated as described above. Then, they were divided into the following groups: • one group of 10 rats which received 5 μl/day of physiological serum • one group of 30 rats which received 50 mg/kg/day dexamethasone, dissolved in physiological serum.
After the last learning session at 10.00 a.m., the rats were sacrificed by means of decapitation, and the hippocampi were quickly removed and put on a plate cooled to 0° C. The number of glucocorticoid receptors was determined by a binding method using a labeled corticoid and a specific inhibitor to the binding of the corticoid to the receptor (here a total agonist). The protein content was measured by Lowry's method.
The hippocampi of each rat were homogenized in 2 ml of sodium EDTA Glycerol molybdate buffer. The homogenate was centrifugated at 100.000 g for 60 minutes. An aliquot of the supernatant was diluted in distilled water, and the protein content was measured by Lowry's method.
The rest of the supernatant was divided into three parts of 0.2 ml each. Increasing concentrations (25, 50 and 75 nmoles/ml) of dexamethasone 3H (Amersham 50 Ci/mM) were added to these parts. Three other preparations were carried out under the same conditions, while a saturating quantity of a total […] of the receptors (RU 28362) was added to obtain a non-specific binding of the labeled dexamethasone.
After one night of incubation at 4° C., charcoal/dextran was added to absorb […] dexamethasone. After centrifugation, the radioactivity of the supernatant was measured by liquid scintillation.
The radioactive quantities of the dexamethasone bound to the protein content are recorded. Results are expressed in femtomoles of the labeled corticoid bound to the receptor per mg of proteins.

The subject of experiment [2] is rats given vincristine (vincristine model). Kind of experiment: Vincristine model: sound avoidance conditioning. The following applies: for percentage of avoidance, Day 0 / percentage of avoidance, Day 1 / percentage of avoidance, Day 2 / percentage of avoidance, Day 3 / percentage of avoidance, Day 4: vincristine 5 μg/kg/day for 5 days; for percentage of avoidance, Day 0: learning Day 0; for percentage of avoidance, Day 1: learning Day 1; for percentage of avoidance, Day 2: learning Day 2; for percentage of avoidance, Day 3: learning Day 3; for percentage of avoidance, Day 4: learning Day 4; for AUC pro Tag: average area under the learning curve per day, maximum value 100. As to the method:
Rats were kept and treated as described above in 3. Then they were divided into the following groups: • one group of 10 rats which received 5 μl/day of physiological serum over a period of 5 days • one group of 30 rats which received 5 μl/day of physiological serum containing 5 μg/kg vincristine over a period of 5 days
A dosage of 5 μg/kg/day causes a 40 to 60% loss of the hippocampal arborization.
After the last administration, the second group of 30 rats was divided at random into three sub-groups and treated as described above in 3.
(§2) During the last five days of treatment, at 10.00 a.m. (1 hour after the administration of Cinnamoyl-Gly-Phe-PrONH2), the animals were placed into a learning cage for sound avoidance conditioning (Conditioning avoidance response). The animals learned to climb a pole first to escape from and then to avoid an electric shock. This method was standardized and quantified. (see Le Poncin M., Lafitte J. C., Rapin J. R., Sound Avoidance Conditioning and a Mathematical approach to the description of acquisition performance, Math. Biosciences 59 (1982) 242-268).
(§3) For a period of five days, the animals were placed everyday under these learning conditions for a total of ten tests a day. Results are expressed as percentage of adequate responses, and the kinetics of the responses is represented by a multi-exponential maximum curve.
(§4) The curve maximum represents the learning capacities. The slope of the curve evaluates the learning speed. The area under the curve (AUC) represents a good evaluation of all conditioning parameters. The maximum value of the area under the curve is 500, if the animals show 100% adequate responses as early as Day 0. In fact, an average area under the curve is calculated per day, what amounts to a maximum value of 100. In the absolute control animals, this average area under the curve is equal to 40+/−4.

In experiment [3] the test system is rats given dexamethasone (dexamethasone model). Kind of experiment: Dexamethasone model: sound avoidance conditioning. Conditions: for percentage of avoidance, Day 0 / percentage of avoidance, Day 1 / percentage of avoidance, Day 2 / percentage of avoidance, Day 3 / percentage of avoidance, Day 4: dexamethasone 50 mg/kg/day; for percentage of avoidance, Day 0: learning Day 0; for percentage of avoidance, Day 1: learning Day 1; for percentage of avoidance, Day 2: learning Day 2; for percentage of avoidance, Day 3: learning Day 3; for percentage of avoidance, Day 4: learning Day 4; for effect on learning capacity (in words) / AUC (average area under the learning curve per day): dexamethasone model; for AUC (average area under the learning curve per day): maximum value 100. As to the method: as §1
(§5) During the last five days of treatment, the rats were placed under the common learning conditions of the three models between 10.00 a.m. and 11.00 a.m. (see below).
as §2, §3, §4

In experiment [4] the test system is rats given Gp120 (Gp120 model). Kind of experiment: Gp120 model: sound avoidance conditioning (pole climbing test). Conditions: for percentage of avoidance, Day 0 / percentage of avoidance, Day 1 / percentage of avoidance, Day 2 / percentage of avoidance, Day 3 / percentage of avoidance, Day 4: Gp120 10 nM/kg/day for 5 days; for percentage of avoidance, Day 0 / percentage of avoidance, Day 1 / percentage of avoidance, Day 2 / percentage of avoidance, Day 3 / percentage of avoidance, Day 4 / AUC (average area under the learning curve per day): treatment 10 mg/kg/day for 5 days; for percentage of avoidance, Day 0: learning Day 0; for percentage of avoidance, Day 1: learning Day 1; for percentage of avoidance, Day 2: learning Day 2; for percentage of avoidance, Day 3: learning Day 3; for percentage of avoidance, Day 4: learning Day 4; for effect on learning parameters (in words) / AUC (average area under the learning curve per day): Gp120 model; for AUC (average area under the learning curve per day): maximum value 100.
Text: 40 rats were slightly anesthetized by ether, an incision was made into the skin of the skull, and the skull was pierced by means of a dental burr. A metal needle was stereotaxically directed to the lateral ventricle, and then fixed by means of dental cement. Every day of the experiment, the patency of the needle was controlled.
Three days after introducing the needle (recovery from the postoperative shock) the non-anesthetized animals were divided into 2 groups: • one group of 10 rats to which 5 μl of physiological serum was injected • one group of 30 rats to which 5 μl of physiological serum containing Gp120 in an amount of 10 nM/kg was injected
This administration was repeated every day for a period of five days.
Ten days after the last administration of Gp120, the thirty rats were randomly divided into three groups of 10 animals each: • (i) one group of 10 rats received 1 ml/kg/day of normal saline (controls) for a period of 5 days. • (ii) one group of 10 rats received 10 mg/kg/day of Cinnamoyl-Gly-L-Phe-L-PrONH2 dissolved in normal saline for a period of 5 days. • (iii) one group of 10 rats received 10 mg/kg/day of tacrine peros for a period of 5 days
as §5, §2, §3, §4

For the next experiment, the system named is hippocampal neurons. Description: Gp120 model: neuronal count in the CA III layers of the hippocampus. Conditions: percentage of the control group, treatment 10 mg/kg/day for 5 days.
The subject of the next experiment is hippocampal arborization. Description: Vincristine model: loss of the hippocampal arborization. Conditions: vincristine 5 μg/kg/day. As for the experimental part: Vincristine is an anticarcinogen that is used as a synchronizing agent. This molecule binds to the spindle of microtubules, thus blocking the cellular multiplication during the metaphase. It is a spindle poison. […] Vincristine binds to these neurofibrils thus causing peripheral neural conduction disorders in patients who are treated for neoplasm. These effects mainly affect the white matter of the axons. […] The repeated ICV administration of vincristine causes a degeneration of the conduction pathways with the appearance of abnormal neurofibrils similar to those observed in Alzheimer's disease. This degeneration mainly affects the periventricular structures. The hippocampi are affected through a decrease of their ramifications, while the cell bodies of the neurons are not altered. […] After this period, a protective layer forms on the glia cells that prevent the diffusion of vincristine from the CSF to the neighboring nerve cells. There is no spontaneously developing Alzheimer's disease in rats that would show the different types of degenerative lesions (beta-amyloid plaques, neurofibrillary and vacuolar degeneration). ICV administration of vincristine, which may cause neurofibrillary degeneration, may be used as a partial animal model of this disease. […]

Protocol for hippocampal neurons: After the last learning session, the rats were sacrificed by means of decapitation, and the brain was isolated and frozen to −80° C. with liquid nitrogen. Cuts of a thickness of 50 μm were obtained in a “cryo-cut”, and the neurons are counted in the CA III layers of the hippocampus under a microscope. The results are expressed as percentage of the control group.

For `C[C@@H]1C[C@H]2[C@@H]3CCC4=CC(=O)C=C[C@]4(C)[C@@]3(F)[C@@H](O)C[C@]2(C)[C@@]1(O)C(=O)CO` [dexamethasone], the “decrease in the number of corticoide receptors in the hippocampus” value in experiment [1] (dexamethasone, dosage and treatment time of this experiment) was approximately 60%.

Regarding `Nc1c2c(nc3ccccc13)CCCC2` [tacrine], in experiment [2], the “percentage of avoidance, Day 0” value came out at 0%; the “percentage of avoidance, Day 1” value is given as 2 +/− 1%; the “percentage of avoidance, Day 2” value was 7 +/− 2%; the “percentage of avoidance, Day 3” value is given as 19 +/− 2%. Further, the “percentage of avoidance, Day 4” value in experiment [2] is 28 +/− 3%. Moreover, in experiment [2] (vincristine model), the “effect on learning capacities (in words)” value is “does not show an effect” and the “AUC pro Tag” value was 11.2 +/− 0.8. Also, in experiment [1], the “Type I receptors in Femtomol/mg protein” value came out at 46 ± 5 Femtomol/mg protein and the “effect on number of receptors of hippocampus neurons (in words)” value is “does not show any effect”. Besides, in experiment [3], the “percentage of avoidance, Day 0” value amounted to 0%; the “percentage of avoidance, Day 1” value is listed as 5 +/− 2%; the “percentage of avoidance, Day 2” value was 15 +/− 3%; the “percentage of avoidance, Day 3” value is 42 +/− 4%. In experiment [3], the “percentage of avoidance, Day 4” value was 52 +/− 4%; the “effect on learning capacity (in words)” value is “does not show any effect”; the “AUC (average area under the learning curve per day)” value was 22.8 +/− 1.3. In experiment [4], the “percentage of avoidance, Day 0” value stood at 0%; the “percentage of avoidance, Day 1” value is recorded as 5 +/− 2%; the “percentage of avoidance, Day 2” value was “**18 +/− 2%”; the “percentage of avoidance, Day 3” value is listed as “**31 +/− 3%”. In experiment [4], the “percentage of avoidance, Day 4” value is “**42 +/− 4%”; the “effect on learning parameters (in words)” value is reported as “partly restores the learning parameters”; the “AUC (average area under the learning curve per day)” value is given as 19.4 +/− 2.2. Moreover, in the experiment on hippocampal neurons, the “Percentage of hippocampal neurons” value turned out to be 45 ± 3%.

Turning to `NC(=O)[C@@H]1CCCN1C(=O)[C@H](Cc1ccccc1)NC(=O)CNC(=O)C=Cc1ccccc1` [tripeptide derivative, cinnamoyl-glycyl-L-phenylalanyl-L-prolineamide], in experiment [2], the “percentage of avoidance, Day 0” value worked out at 0%; the “percentage of avoidance, Day 1” value is listed as 5 +/− 2%; the “percentage of avoidance, Day 2” value was “**20 +/− 2%”; the “percentage of avoidance, Day 3” value is listed as “**45 +/− 3%”. Also, the “percentage of avoidance, Day 4” value in experiment [2] is listed as “**53 +/− 3%”. Moreover, the “AUC pro Tag” value in experiment [2] (vincristine model) is “**24.6 +/− 1.0”. In addition, in experiment [1], the “Type I receptors in Femtomol/mg protein” value is listed as “**85 ± 9 Femtomol/mg protein” and the “effect on number of receptors of hippocampus neurons (in words)” value was “significant increase of the number of receptors”. In addition, in experiment [3], the “percentage of avoidance, Day 0” value was found to be 0%; the “percentage of avoidance, Day 1” value is reported as 8 +/− 3%; the “percentage of avoidance, Day 2” value is recorded as “**28 +/− 3%”; the “percentage of avoidance, Day 3” value is given as “**68 +/− 3%”. For the same compound, in experiment [3], the “percentage of avoidance, Day 4” value is recorded as “**77 +/− 3%”; the “effect on learning capacity (in words)” value is on record as “considerably restores the learning capacity”; the “AUC (average area under the learning curve per day)” value was “**36.2 +/− 1.2”. Further, in experiment [4], the “percentage of avoidance, Day 0” value was found to be 0%; the “percentage of avoidance, Day 1” value is reported as 5 +/− 2%; the “percentage of avoidance, Day 2” value is “**18 +/− 2%”; the “percentage of avoidance, Day 3” value is reported as “**32 +/− 2%”. In experiment [4], the “percentage of avoidance, Day 4” value was “**43 +/− 3%”; the “effect on learning parameters (in words)” value was “improvement of the learning capacities”; the “AUC (average area under the learning curve per day)” value is on record as “**19.6 +/− 1.8”. For the same compound, the “effect on learning parameters (in words)” value in experiment [4] (listed as Cinnamoyl-Gly-Phe-ProNH2) is “partly restores the learning parameters”. The “Percentage of hippocampal neurons” value with hippocampal neurons is reported as “*54 ± 3%”.

On to `CC[C@]1(O)C[C@H]2CN(CCc3c([nH]c4ccccc34)[C@@](C(=O)OC)(c3cc4c(cc3OC)N(C=O)[C@H]3[C@@](O)(C(=O)OC)[C@H](OC(C)=O)[C@]5(CC)C=CCN6CC[C@]43[C@@H]65)C2)C1` [vincristine], for which, in the experiment on hippocampal arborization, the “loss of the hippocampal arborization” value lay in the range of 40 to 60%.
